Data on 2 compounds can be found in paper PMC12463120, “Phenylalanine‐Based DNA‐Encoded Chemical Libraries for the Discovery of Potent and Selective Small Organic Ligands Against Markers of Cancer and Immune Cells” (Advanced Science, 2025).

Test [1] has as its target T1, PSMA (Homo sapiens, UniProt Q04609).
T1 construct: Avi-tag; made in house; host or cells: CHO cells
As to the kind of experiment: Fluorescence polarization (FP) affinity against PSMA. The test is classed as binding. The note with it: fluoresceinated compounds. The protocol:
Hits obtained from FM‐DEL1 (A1452 and A3113) and FM‐DEL2 (A3113/B423) were re‐synthesized as stereo‐chemically pure off‐DNA compounds derivatized with a C6 linker featuring a fluorescein moiety (coupled to fluorescein isothiocyanate‐FITC) (compounds 1–6) [Figure 2E]. The binding affinity against PSMA and GCP3 (KD) of fluoresceinated compounds 1–6 was measured by fluorescence polarization (FP). […] The superiority of compound 5 (S‐configuration) in binding PSMA over compound 6 (R‐configuration) was confirmed by molecular docking studies [Figure S48, Supporting Information]. […] The presence of the sole building block A3113 on the 3‐iodo‐phenylalanine scaffold in the S‐configuration gives adequate selectivity for PSMA over GCP3. The addition of the second building block (B423) enhances both affinity and selectivity for the target.
Selection results were decoded with C++^[ [61] ^] and visualized using MATLAB R2019b (MathWorks). EFs were calculated by dividing the DNA sequence counts for each hit compound by the average DNA sequence count from the corresponding DEL screening. Additionally, Z‐score values were calculated following methods previously published,^[ [60] ^] as present in Supporting Information. […] Affinities of fluorescein‐bearing hits were determined by FP or ELISA measurements. […] Binding kinetics were assessed on a Biacore X100 instrument with the target protein immobilized on a CM5 chip at 4′000 RUs. Cell binding of fluorescent ligands was evaluated using flow cytometry against antigen‐positive and antigen‐negative (wild‐type) cancer cells. in vitro tissue uptake of ^177Lu‐labelled DOTAGA PSMA‐radioligands was measured via autoradiography. […]
(§1) The protein was then concentrated using Vivaspin® 20 centrifugal concentrators (30’000 Da molecular weight cutoff, Sartorius, #VS2012) and then purified by SEC or PD-10 column. The fractions were measured (absorption at 280 nm) on a Nanodrop 2000 Spectrophotometer to combine protein-containing fractions. […]
(§2) 2.11 Fluorescence polarization (FP) measurements with fluoresceine-labelled […]
Background: Fluorescence polarisation rises when a labelled molecule tumbles more slowly, as on binding a larger partner.

Test [2] concerns the target T1, PSMA. The test is described as follows: Size-exclusion chromatography co-elution with PSMA. The test is classed as binding. The note with it: recombinant PSMA vs GCP3. On the procedure:
(§3) Selection results were decoded with C++^[ [61] ^] and visualized using MATLAB R2019b (MathWorks). EFs were calculated by dividing the DNA sequence counts for each hit compound by the average DNA sequence count from the corresponding DEL screening. Additionally, Z‐score values were calculated following methods previously published,^[ [60] ^] as present in Supporting Information. Hit compounds with high EFs in the target protein selections and low EFs in the negative controls (anti‐target and streptavidin selections) were selected for hit validation activities. All compounds were synthesized using either solid‐phase peptide synthesis or solution‐phase methodologies. Affinities of fluorescein‐bearing hits were determined by FP or ELISA measurements. […] Binding kinetics were assessed on a Biacore X100 instrument with the target protein immobilized on a CM5 chip at 4′000 RUs. Cell binding of fluorescent ligands was evaluated using flow cytometry against antigen‐positive and antigen‐negative (wild‐type) cancer cells. in vitro tissue uptake of ^177Lu‐labelled DOTAGA PSMA‐radioligands was measured via autoradiography. […]
(§4) Protein dissolved in PBS or HEPES buffer was incubated for 30-60 min with 5 equiv. of EZ-LinkTM NHS-LC-Biotin (Thermo Fisher Scientific, #21336). […] The fractions were measured (absorption at 280 nm) on a Nanodrop 2000 Spectrophotometer to combine protein-containing fractions. […]
(In general: SEC sorts molecules by how far they enter the pores of the column.)

Test [3] relates to HT-1080.hPSMA tumor cells. The test is described as follows: Flow cytometry on HT-1080.hPSMA cells. The test is classed as cell-based. The conditions noted are these: 250 nM. On the procedure:
(§5) Selection results were decoded with C++^[ [61] ^] and visualized using MATLAB R2019b (MathWorks). EFs were calculated by dividing the DNA sequence counts for each hit compound by the average DNA sequence count from the corresponding DEL screening. Additionally, Z‐score values were calculated following methods previously published,^[ [60] ^] as present in Supporting Information. Hit compounds with high EFs in the target protein selections and low EFs in the negative controls (anti‐target and streptavidin selections) were selected for hit validation activities. All compounds were synthesized using either solid‐phase peptide synthesis or solution‐phase methodologies. Affinities of fluorescein‐bearing hits were determined by FP or ELISA measurements. […] ACP3 colorimetric inhibition assay was performed with serially diluted compounds at a fixed concentration (5 mM in PBS) of para‐nitrophenyl phosphate as substrate. Binding kinetics were assessed on a Biacore X100 instrument with the target protein immobilized on a CM5 chip at 4′000 RUs. Cell binding of fluorescent ligands was evaluated using flow cytometry against antigen‐positive and antigen‐negative (wild‐type) cancer cells. in vitro tissue uptake of ^177Lu‐labelled DOTAGA PSMA‐radioligands was measured via autoradiography. Prism 9 software (GraphPad Software) was used for data analysis of FP, ELISA, PD‐10, SPR, and enzymatic assay measurements. SPR sensograms were fitted with the Biacore X100 Evaluation Software. Flow cytometry data was processed with the FlowJo 10.4 software.
HT1080.hPSMA and PC3.hACP3 cell lines were generated by lentiviral transduction on wild type cells (HT1080.wt and PC3.wt), according to published procedures9. […]
Cancer cells were detached with an Accutase® cell detachment solution, resuspended in a standard culture medium, and transferred to falcon tubes. Cells were counted and centrifuged at 400 rcf for 3 min. […] Data were acquired halting the measurement at 10´ 000 events on a Cytoflex S flow cytometer (Beckman Coulter), and analyzed using the FlowJo software v10 (BD Biosciences). […]
For orientation: A flow cytometer gives signals particle by particle.

For the next test, the target named is T2, recombinant human ACP3 (Homo sapiens, UniProt P15309).
T2 construct: made in house; host or cells: CHO cells
T2 sequence (P15309 33-386): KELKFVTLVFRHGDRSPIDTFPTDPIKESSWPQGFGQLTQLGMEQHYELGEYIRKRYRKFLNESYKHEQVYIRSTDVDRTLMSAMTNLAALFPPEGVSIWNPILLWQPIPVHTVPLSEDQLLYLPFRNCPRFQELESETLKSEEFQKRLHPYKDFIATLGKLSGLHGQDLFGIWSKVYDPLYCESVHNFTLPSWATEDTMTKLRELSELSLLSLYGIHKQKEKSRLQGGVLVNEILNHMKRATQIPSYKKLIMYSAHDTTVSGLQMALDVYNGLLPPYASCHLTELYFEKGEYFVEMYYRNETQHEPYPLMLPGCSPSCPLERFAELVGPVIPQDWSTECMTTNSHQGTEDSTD
The test is described as follows: Fluorescence polarization (FP) affinity against human ACP3. The test is classed as binding. The conditions noted are these: PSMA ligands as negative controls. The protocol: as §5, with “SPR sensograms were fitted with the Biacore X100 Evaluation Software. Flow cytometry data was processed with the FlowJo 10.4 software.” left out
as §1, §4, §2

Another test has as its target T3, human CAIX (hCAIX) (Homo sapiens, UniProt Q16790).
T3 construct: made in house; host or cells: CHO cells
The test is described as follows: Fluorescence polarization (FP) affinity against hCAIX. The test is classed as binding. The note with it: fluorescein derivatives.

Test [4] relates to SK-RC-52 renal cell carcinoma cells. As to the kind of experiment: Flow cytometry on SK-RC-52 cells. The conditions noted are these: 100 nM. The test is classed as cell-based.
The target in a further test is murine CAIX (mCAIX) (Mus musculus, UniProt Q8VHB5). As to the kind of experiment: Fluorescence polarization (FP) affinity against mCAIX. The test is classed as binding. On the procedure: as §3, §4
murine CAIX (mCAIX), sequence (Q8VHB5 32-437): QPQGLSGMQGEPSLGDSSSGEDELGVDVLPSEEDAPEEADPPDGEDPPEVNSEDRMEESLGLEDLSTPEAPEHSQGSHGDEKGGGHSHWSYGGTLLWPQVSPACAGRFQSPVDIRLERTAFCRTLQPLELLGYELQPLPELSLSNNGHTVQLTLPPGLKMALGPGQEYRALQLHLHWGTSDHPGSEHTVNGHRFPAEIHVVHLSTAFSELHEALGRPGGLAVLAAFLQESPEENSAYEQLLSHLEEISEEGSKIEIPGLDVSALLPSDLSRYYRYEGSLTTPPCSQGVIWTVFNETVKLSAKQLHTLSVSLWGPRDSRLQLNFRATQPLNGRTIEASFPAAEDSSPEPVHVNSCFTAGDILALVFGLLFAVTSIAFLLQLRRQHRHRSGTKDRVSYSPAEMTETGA
The next test addresses bovine CAII (bCAII) (Bos taurus, UniProt P00921). The test is described as follows: Fluorescence polarization (FP) affinity against bCAII. The test is classed as binding. On the procedure: as §3, §4

The structures appear in SMILES notation.

T1 sequence (Q04609 whole entry): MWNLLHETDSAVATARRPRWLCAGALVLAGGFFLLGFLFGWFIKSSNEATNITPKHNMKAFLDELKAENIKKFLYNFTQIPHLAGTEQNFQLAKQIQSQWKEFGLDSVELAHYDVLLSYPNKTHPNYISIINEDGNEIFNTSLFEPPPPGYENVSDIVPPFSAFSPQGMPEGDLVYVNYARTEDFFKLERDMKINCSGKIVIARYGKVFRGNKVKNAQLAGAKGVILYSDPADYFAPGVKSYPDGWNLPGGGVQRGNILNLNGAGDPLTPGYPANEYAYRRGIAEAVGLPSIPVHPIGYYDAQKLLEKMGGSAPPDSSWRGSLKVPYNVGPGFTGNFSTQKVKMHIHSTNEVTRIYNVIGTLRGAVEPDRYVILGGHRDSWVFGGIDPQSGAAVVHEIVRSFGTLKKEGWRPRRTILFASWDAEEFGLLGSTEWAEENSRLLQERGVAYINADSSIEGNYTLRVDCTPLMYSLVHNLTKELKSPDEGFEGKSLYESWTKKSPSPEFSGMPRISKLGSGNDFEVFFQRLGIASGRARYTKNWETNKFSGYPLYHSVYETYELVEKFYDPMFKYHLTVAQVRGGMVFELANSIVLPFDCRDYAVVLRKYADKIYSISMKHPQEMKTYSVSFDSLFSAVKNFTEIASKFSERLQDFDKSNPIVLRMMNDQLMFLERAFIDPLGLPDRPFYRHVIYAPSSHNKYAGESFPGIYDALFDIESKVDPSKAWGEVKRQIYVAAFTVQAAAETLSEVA
bovine CAII (bCAII), sequence (P00921 whole entry): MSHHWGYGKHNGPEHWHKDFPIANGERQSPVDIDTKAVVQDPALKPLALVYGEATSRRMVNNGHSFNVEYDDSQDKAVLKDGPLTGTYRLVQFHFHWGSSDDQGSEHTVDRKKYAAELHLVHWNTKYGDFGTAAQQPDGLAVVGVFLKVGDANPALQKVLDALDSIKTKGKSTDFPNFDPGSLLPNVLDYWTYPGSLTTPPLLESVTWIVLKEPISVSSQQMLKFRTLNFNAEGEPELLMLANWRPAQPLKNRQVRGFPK
Procedure for human CAIX (hCAIX): A dilution series of target proteins (i.e., PSMA, GCP3, CAIX, CAII) in the respective formulation buffer were separately prepared in a black 384-well plate (non-binding Greiner small volume plate). Test compounds functionalized with fluorescein were diluted to a concentration between 5 and 10 nM (5 μL) and incubated for 15 min with the protein (final volume corresponding to 10 µL). The fluorophore was excited at 485 nm, and anisotropy was measured at 535 nm on a Spectra Max Paradigm multimode plate reader (Tecan). The experiments were performed in triplicate. KD values measured using this FP method can differ from dissociation constants obtained by other physical methods (e.g., surface plasmon resonance, see section below).

Turning to `CCOc1ccccc1-c1cccc(C[C@H](NC(=O)N[C@@H](CCC(=O)O)C(=O)O)C(=O)NCCCCCCNC(=S)Nc2ccc3c(c2)C(=O)OC32c3ccc(O)cc3Oc3cc(O)ccc32)c1` [compound 5], the Kd (in general, the concentration at which binding is half-saturated) at PSMA [1] stood at 13 nM. In addition, the “co-elution with PSMA in size-exclusion chromatography” value at PSMA [2] is “selective and kinetically stable interaction with PSMA”. For the same compound, the “binding to PSMA on the cell surface by flow cytometry” value in test [3] was “able to bind to the antigen expressed on the tumor cell surface”. Further, at recombinant human ACP3, the “binding to human ACP3 by FP” value is on record as “did not bind”.
Turning to `NS(=O)(=O)c1ccc(-c2cccc(C[C@@H](NC(=O)CCC(=O)N[C@@H](CCCCNC(=S)Nc3ccc4c(c3)C(=O)OC43c4ccc(O)cc4Oc4cc(O)ccc43)C(=O)O)C(=O)NCC3(c4cccs4)CCOCC3)c2)cc1` [compound 21], the Kd on human CAIX (hCAIX) was determined as 0.95 nM; at murine CAIX (mCAIX), 8.73 nM; at bovine CAII (bCAII), 150 nM. Also, in test [4], the “binding to CAIX on the cell surface by flow cytometry” value is “bound to the antigen expressed on the surface of cancer cells”.
